Entries after “also recorded” stand apart in the source; their conditions may differ.

Data set [1] can be described thus: Detection probes on interproximal models of extracted human teeth. Particulars: for degree of detection: early stage caries lesion, optical observation; for emission wavelength (nm) / excitation/absorbance wavelength (nm): probe bound to interproximal enamel caries; for optical observation of early stage caries lesion with bound probe (photograph): tooth preparation illuminated and photographed. As for the experimental part:
Interproximal models of extracted human teeth (molars and premolars) were fabricated using silicon impression materials. Interproximal enamel caries at about […] depth and at about 1.5 mm depth were prepared by using areas of interproximal contact regions. The dental preparations having synthetic caries were assessed by radiographic films (bitewings) and a microscope.
A cotton ball was saturated with the detection probe, and placed in contact with the region of the interproximal enamel caries. The bound probe was observed by illuminating over a varying set of different wavelengths of excitation light, followed by detecting light of fluorescent emissions. Furthermore, absorbance of the illuminating wavelengths was detected as appropriate for each probe.
Each tooth preparation having interproximal enamel caries and bound probe was illuminated and photographed.

Data set [2] is described as follows: RFU comparison of solutions to release OsteoSense 750 from HA.
Procedure: Variables included conditions of pH, temperature, and presence of 1% calcium chloride.
Three conditions were tested: incubation for 15 minutes at 37° C. after vortexing; adjusting pH to 6.5 at 23° C. after vortexing; and addition of 1% calcium chloride to each solution and incubation at room temperature after vortexing.
Where [3] appears, read: 1% solution with calcium chloride (1%), room temperature.
Setting [4] is: 1% solution, 15 minutes at 37° C.
Setting [5] is: 1% solution, pH 6.5, room temperature.
The mark [6] stands for this setting: 5% solution with calcium chloride (1%), room temperature.
Where [7] appears, read: 5% solution, 15 minutes at 37° C.
Where [8] appears, read: 5% solution, pH 6.5, room temperature.
Where [9] appears, read: 10% solution with calcium chloride (1%), room temperature.
The mark [10] stands for this setting: 10% solution, 15 minutes at 37° C.
Setting [11] is: 10% solution, pH 6.5, room temperature.
Where [12] appears, read: 20% solution, 15 minutes at 37° C.
The mark [13] stands for this setting: 20% solution with calcium chloride (1%), room temperature.
The mark [14] stands for this setting: 20% solution, pH 6.5, room temperature.

Take `C=Cc1c(C)c2cc3nc(c4c5[n-]c(cc6nc(cc1[n-]2)C(C)=C6CC)c(C)c5C(=O)[C@@H]4C(=O)OC)[C@@H](CCC(=O)OC/C=C(\C)CCC[C@H](C)CCC[C@H](C)CCCC(C)C)[C@@H]3C.[Mg+2]` [Chlorophyll A]: in data set [1], the degree of detection result is “Good”, the “emission wavelength (nm)” value is listed as 670-900 nm, the “excitation/absorbance wavelength (nm)” value came out at 614 nm and the “optical observation of early stage caries lesion with bound probe (photograph)” value was “Fluorescence of an early stage caries lesion was observed”.

With `COc1cccc2c1C(=O)c1c(O)c3c(c(O)c1C2=O)C[C@@](O)(C(=O)CO)C[C@@H]3O[C@H]1C[C@H](N)[C@H](O)[C@H](C)O1` [Doxorubicin], in data set [1], the degree of detection result is given as “Good”, the “emission wavelength (nm)” value is 630 nm, the “excitation/absorbance wavelength (nm)” value came out at 480 nm and the “optical observation of early stage caries lesion with bound probe (photograph)” value is reported as “Fluorescence of an early stage caries lesion was observed”.

Take `CC1(C)C(=CC=C2CCCC(C=CC3=[N+](CCCCS(=O)(=O)[O-])c4ccc5ccccc5c4C3(C)C)=C2Cl)N(CCCCS(=O)(=O)[O-])c2ccc3ccccc3c21.[Na+]` [IR820 (ICG)]: in data set [1], the degree of detection result is “Good”, the “emission wavelength (nm)” value is reported as 845 nm and the “excitation/absorbance wavelength (nm)” value is 745 nm.

Turning to `O=P(O)(O)CP(=O)(O)O` [methylene phosphoric acid (MDP), methylene phosphoric acid], the “% released of total OsteoSense” value worked out at 1.45% in data set [2] (setting [3]); 2.49% in data set [2] (setting [4]); 3.59% in data set [2] (setting [5]); 23.89% in data set [2] (setting [6]); 34.33% in data set [2] (setting [7]); 35.61% in data set [2] (setting [8]). Besides, the “% released of total OsteoSense” value in data set [2] (setting [9]) is on record as 34.23%; in data set [2] (setting [10]), 56.56%; in data set [2] (setting [11]) it was 59.77%; in data set [2] (setting [12]), −0.13%. Further, the “% released of total reference value” in data set [2] (setting [3]) turned out to be 1.54%; in data set [2] (setting [4]) it was 2.11%; in data set [2] (setting [5]) it was 2.50%; in data set [2] (setting [6]) it was 32.07%; in data set [2] (setting [7]) it was 30.09%; in data set [2] (setting [8]), 27.41%. Moreover, the “% released of total reference value” in data set [2] (setting [9]) came out at 37.57%; in data set [2] (setting [10]), 55.84%; in data set [2] (setting [11]) it was 41.32%. Moreover, the “Raw RFU value” in data set [2] (setting [3]) is on record as 0.54 RFU; in data set [2] (setting [4]), 0.93 RFU; in data set [2] (setting [5]), 1.35 RFU; in data set [2] (setting [6]), 8.96 RFU; in data set [2] (setting [7]), 12.88 RFU; in data set [2] (setting [8]) it was 13.35 RFU. The “Raw RFU value” in data set [2] (setting [9]) is 12.83 RFU; in data set [2] (setting [10]), 21.21 RFU; in data set [2] (setting [11]), 22.41 RFU; in data set [2] (setting [12]), −0.05 RFU. The “relative efficacy in removing OsteoSense 750 from HA” value in data set [2] (compared with the other agents) is “remove more OsteoSense 750 from HA than sodium phosphate monobasic or sodium phosphate dibasic at each concentration; also recorded: generally most effective for removing OsteoSense 750”.

Turning to `O=P([O-])([O-])O.[Na+].[Na+]` [sodium phosphate dibasic (D), sodium phosphate dibasic], the “% released of total OsteoSense” value in data set [2] (setting [3]) is recorded as 0.01%; in data set [2] (setting [4]) it was 2.97%; in data set [2] (setting [5]), 1.81%; in data set [2] (setting [6]), 4.67%; in data set [2] (setting [7]), 14.21%; in data set [2] (setting [8]) it was 14.64%. In addition, the “% released of total OsteoSense” value in data set [2] (setting [9]) is 4.90%; in data set [2] (setting [10]), 27.90%; in data set [2] (setting [11]), 25.75%; in data set [2] (setting [13]), 14.02%; in data set [2] (setting [12]), 35.48%; in data set [2] (setting [14]), 56.19%. The “% released of total reference value” in data set [2] (setting [3]) came out at 0.02%; in data set [2] (setting [4]), 2.30%; in data set [2] (setting [5]), 2.08%; in data set [2] (setting [6]), 4.11%; in data set [2] (setting [7]), 13.12%; in data set [2] (setting [8]), 14.63%. Besides, the “% released of total reference value” is on record as 5.28% in data set [2] (setting [9]); 31.69% in data set [2] (setting [10]); 21.10% in data set [2] (setting [11]); 29.08% in data set [2] (setting [13]); 27.01% in data set [2] (setting [12]); 55.57% in data set [2] (setting [14]). Further, the “Raw RFU value” in data set [2] (setting [3]) is given as 0.00 RFU; in data set [2] (setting [4]) it was 1.11 RFU; in data set [2] (setting [5]) it was 0.68 RFU; in data set [2] (setting [6]), 1.75 RFU; in data set [2] (setting [7]), 5.33 RFU; in data set [2] (setting [8]) it was 5.49 RFU. Further, the “Raw RFU value” in data set [2] (setting [9]) amounted to 1.84 RFU; in data set [2] (setting [10]) it was 10.46 RFU; in data set [2] (setting [11]), 9.66 RFU; in data set [2] (setting [13]), 5.26 RFU; in data set [2] (setting [12]), 13.30 RFU; in data set [2] (setting [14]), 21.07 RFU.

Turning to `O=P([O-])(O)O.[Na+]` [sodium phosphate monobasic (M), sodium phosphate monobasic], the “% released of total OsteoSense” value in data set [2] (setting [3]) is 0.60%; in data set [2] (setting [4]), 3.10%; in data set [2] (setting [5]), 6.36%; in data set [2] (setting [6]), 5.34%; in data set [2] (setting [7]), 10.41%; in data set [2] (setting [8]), 23.87%. Besides, the “% released of total OsteoSense” value in data set [2] (setting [9]) was 10.27%; in data set [2] (setting [10]) it was 23.92%; in data set [2] (setting [11]), 32.44%; in data set [2] (setting [13]), 20.04%; in data set [2] (setting [12]) it was 27.67%; in data set [2] (setting [14]) it was 33.90%. The “% released of total reference value” in data set [2] (setting [3]) is 2.51%; in data set [2] (setting [4]), 3.65%; in data set [2] (setting [5]), 9.73%; in data set [2] (setting [6]), 11.39%; in data set [2] (setting [7]), 13.11%; in data set [2] (setting [8]) it was 31.74%. In addition, the “% released of total reference value” in data set [2] (setting [9]) was determined as 20.25%; in data set [2] (setting [10]), 32.36%; in data set [2] (setting [11]), 45.17%; in data set [2] (setting [13]), 39.19%; in data set [2] (setting [12]), 50.11%; in data set [2] (setting [14]), 51.43%. The “Raw RFU value” was found to be 0.22 RFU in data set [2] (setting [3]); 1.16 RFU in data set [2] (setting [4]); 2.38 RFU in data set [2] (setting [5]); 2.00 RFU in data set [2] (setting [6]); 3.90 RFU in data set [2] (setting [7]); 8.95 RFU in data set [2] (setting [8]). The “Raw RFU value” stood at 3.85 RFU in data set [2] (setting [9]); 8.97 RFU in data set [2] (setting [10]); 12.16 RFU in data set [2] (setting [11]); 7.51 RFU in data set [2] (setting [13]); 10.37 RFU in data set [2] (setting [12]); 12.71 RFU in data set [2] (setting [14]).
